US9615577B2, “Herbicidally active cyclic dione compounds, or derivatives therefor, substituted by a phenyl which has an alkynyl-containing substituent” (Syngenta Limited, priority 2012, dated 2017)

How the values were obtained:
Assay type in all cases: in vivo
[1] = system: Abutilon theophasti Medik. (ABUTH); experiment: Test 1A glasshouse assay for herbicidal activity, pre-emergence; settings: 312 h, 250 g/ha, evaluated after 13 days, read-out: percentage phytotoxicity ABUTH
Procedure: (§1) Seeds of a variety of test species were sown in standard soil in pots. After cultivation for one day (pre-emergence) or after 8 days cultivation (post-emergence) under controlled conditions in a glasshouse (at 24/16° C., day/night; 14 hours light; 65% humidity), the plants were sprayed with an aqueous spray solution derived from the formulation of the technical active ingredient in acetone/I water (50:50) solution containing 0.5% Tween 20 (polyoxyethelyene sorbitan monolaurate, CAS RN 9005-64-5). The test plants were then grown in a glasshouse under controlled conditions in a glasshouse (at 24/16° C., day/night; 14 hours light; 65% humidity) and watered twice daily. After 13 days for pre and post-emergence, the test was evaluated visually for percentage phytotoxicity to the plant (where 100=total damage to plant; 0=no damage to plant).
(§2) Alopecurus myosuroides (ALOMY), Setaria faberi (SETFA), Echinochloa crus-galli (ECHCG), Solanum nigrum (SOLNI), Amaranthus retroflexus (AMARE), Ipomoea hederacea (IPOHE), and Abutilon theophasti Medik. (ABUTH, common English name “velvetleaf”). Of these, Alopecurus myosuroides (ALOMY), Setaria faberi (SETFA), and Echinochloa crus-galli (ECHCG) are grassy monocotyledonous weeds.

[2] = system: Alopecurus myosuroides (ALOMY); experiment: as above; settings: 312 h, 250 g/ha, evaluated after 13 days, read-out: percentage phytotoxicity ALOMY
Procedure: as §1, §2

[3] = system: Amaranthus retroflexus (AMARE); experiment: as above; settings: 312 h, 250 g/ha, evaluated after 13 days, read-out: percentage phytotoxicity AMARE
Procedure: as §1, §2

[4] = system: Echinochloa crus-galli (ECHCG); experiment: as above; settings: 312 h, 250 g/ha, evaluated after 13 days, read-out: percentage phytotoxicity ECHCG
Procedure: as §1, §2

[5] = system: Setaria faberi (SETFA); experiment: as above; settings: 312 h, 250 g/ha, evaluated after 13 days, read-out: percentage phytotoxicity SETFA
Procedure: as §1, §2

[6] = system: Abutilon theophasti Medik. (ABUTH); experiment: Test 1A glasshouse assay for herbicidal activity, post-emergence; settings: 312 h, evaluated after 13 days, read-out: percentage phytotoxicity ABUTH
Procedure: as §1, §2

[7] = system: Alopecurus myosuroides (ALOMY); experiment: as above; settings: 312 h, evaluated after 13 days, read-out: percentage phytotoxicity ALOMY
Procedure: as §1, §2

[8] = system: Amaranthus retroflexus (AMARE); experiment: as above; settings: 312 h, evaluated after 13 days, read-out: percentage phytotoxicity AMARE
Procedure: as §1, §2

[9] = system: Echinochloa crus-galli (ECHCG); experiment: as above; settings: 312 h, evaluated after 13 days, read-out: percentage phytotoxicity ECHCG
Procedure: as §1, §2

[10] = system: Setaria faberi (SETFA); experiment: as above; settings: 312 h, evaluated after 13 days, read-out: percentage phytotoxicity SETFA
Procedure: as §1, §2

[11] = system: Alopecurus myosuroides (ALOMY); experiment: Biological Example 2 comparative herbicidal data, post-emergence glasshouse screen; settings: 312 h, read-out: Post-emergence herbicidal activities (percentage phytotoxicity) ALOMY; for pest or weed control at 15.625 g/ha: 15.625 g/ha application rate; for pest or weed control at 62.5 g/ha: 62.5 g/ha application rate
Procedure: as §1
(§3) Comparative herbicidal data is given below for certain exemplified compounds with 4-(prop-1-ynyl)-2,6-dimethylphenyl or 4-(chloroethynyl)-2,6-dimethylphenyl headgroups, compared to the corresponding compounds with either 4-ethynyl-2,6-dimethylphenyl or 2,4,6-trimethylphenyl headgroups, as follows. Comparative herbicidal data is also given below for certain exemplified compounds with 4-(prop-1-ynyl)-2-chloro-6-methoxyphenyl headgroups, compared to the corresponding compounds with 4-ethynyl-2-chloro-6-methoxyphenyl or 4-(but-1-ynyl)-2-chloro-6-methoxyphenyl or 4-methyl-2-chloro-6-methoxyphenyl or 2-chloro-6-methoxyphenyl headgroups, as follows.
(§4) Except where specified otherwise, the glasshouse screen for herbicidal activity is substantially the same as that presented in Biological Example 1A (Test 1A) hereinabove. The weed abbreviations are as defined in Biological Example 1A.

[12] = system: Echinochloa crus-galli (ECHCG); experiment: as above; settings: 312 h, read-out: Post-emergence herbicidal activities (percentage phytotoxicity) ECHCG; for pest or weed control at 15.625 g/ha: 15.625 g/ha application rate; for pest or weed control at 62.5 g/ha: 62.5 g/ha application rate
Procedure: as §1, §3, §4

[13] = system: Setaria faberi (SETFA); experiment: as above; settings: 312 h, read-out: Post-emergence herbicidal activities (percentage phytotoxicity) SETFA; for pest or weed control at 15.625 g/ha: 15.625 g/ha application rate; for pest or weed control at 62.5 g/ha: 62.5 g/ha application rate
Procedure: as §1, §3, §4

CC#Cc1cc(C)c(C2=C(OC(=O)C(C)(C)C)C3CCC(C3)C2=O)c(C)c1 (centres unmarked) [Compound P-5]
pest or weed control at 250 g/ha [1]: 0% | pest or weed control at 250 g/ha [2]: 100% | pest or weed control at 250 g/ha [3]: 0% | pest or weed control at 250 g/ha [4]: 100% | pest or weed control at 250 g/ha [5]: 100% | pest or weed control at 30 g/ha [6]: 0% | pest or weed control at 250 g/ha [6]: 70% | pest or weed control at 30 g/ha [7]: 60% | pest or weed control at 250 g/ha [7]: 90% | pest or weed control at 30 g/ha [8]: 0% | pest or weed control at 250 g/ha [8]: 10% | pest or weed control at 30 g/ha [9]: 80% | pest or weed control at 250 g/ha [9]: 100% | pest or weed control at 30 g/ha [10]: 70% | pest or weed control at 250 g/ha [10]: 90%

C#Cc1cc(C)c(C2C(=O)C3CCC(C3)C2=O)c(C)c1 (centres unmarked) [Compound X-2, reference compound]
pest or weed control at 15.625 g/ha [11]: 0% | pest or weed control at 62.5 g/ha [11]: 10% | pest or weed control at 15.625 g/ha [12]: 0% | pest or weed control at 62.5 g/ha [12]: 70% | pest or weed control at 15.625 g/ha [13]: 50% | pest or weed control at 62.5 g/ha [13]: 60%

C#Cc1cc(C)c(C2C(=O)CC(CC3CCOCC3)CC2=O)c(C)c1 (centres unmarked) [Compound X-3, reference compound]
pest or weed control at 15.625 g/ha [11]: 30% | pest or weed control at 62.5 g/ha [11]: 60% | pest or weed control at 15.625 g/ha [12]: 20% | pest or weed control at 62.5 g/ha [12]: 50% | pest or weed control at 15.625 g/ha [13]: 60% | pest or weed control at 62.5 g/ha [13]: 70%

CC#Cc1cc(Cl)c(C2C(=O)C3CCC(C3)C2=O)c(OCC(F)(F)F)c1 (centres unmarked) [Compound A-19, 3-[2-chloro-4-prop-1-ynyl-6-(2,2,2-trifluoroethoxyl)phenyl]bicyclo[3.2.1]octane-2,4-dione]
pest or weed control at 250 g/ha [1]: 0% | pest or weed control at 250 g/ha [2]: 40% | pest or weed control at 250 g/ha [3]: 0% | pest or weed control at 250 g/ha [4]: 60% | pest or weed control at 250 g/ha [5]: 60% | pest or weed control at 250 g/ha [6]: 0% | pest or weed control at 250 g/ha [7]: 70% | pest or weed control at 250 g/ha [8]: 0% | pest or weed control at 250 g/ha [9]: 100% | pest or weed control at 250 g/ha [10]: 90%

C#Cc1ccc(C2C(=O)C(C)(C)OC(C)(C)C2=O)c(C)c1 [Compound X-1, reference compound]
pest or weed control at 15.625 g/ha [11]: 20% | pest or weed control at 62.5 g/ha [11]: 10% | pest or weed control at 15.625 g/ha [12]: 0% | pest or weed control at 62.5 g/ha [12]: 0% | pest or weed control at 15.625 g/ha [13]: 0% | pest or weed control at 62.5 g/ha [13]: 30%

CC#Cc1cc(Cl)c(C2=C(OC(=O)SCC)C3CCC(C3)C2=O)c(OCC(F)(F)F)c1 (centres unmarked) [Compound P-6, [3-[2-Chloro-4-prop-1-ynyl-6-(2,2,2-trifluoroethoxyl)phenyl]-4-oxo-2-bicyclo[3.2.1]oct-2-enyl]ethylsulfanylformate]
pest or weed control at 250 g/ha [1]: 0% | pest or weed control at 250 g/ha [2]: 10% | pest or weed control at 250 g/ha [3]: 20% | pest or weed control at 250 g/ha [5]: 10% | pest or weed control at 250 g/ha [6]: 0% | pest or weed control at 250 g/ha [7]: 50% | pest or weed control at 250 g/ha [8]: 20% | pest or weed control at 250 g/ha [9]: 80% | pest or weed control at 250 g/ha [10]: 50%

CC#Cc1cc(Cl)c(C2=C(OC(=O)C(C)(C)C)C3CCC(C3)C2=O)c(OC)c1 (centres unmarked) [Compound P-7]
pest or weed control at 250 g/ha [1]: 0% | pest or weed control at 250 g/ha [2]: 100% | pest or weed control at 250 g/ha [3]: 0% | pest or weed control at 250 g/ha [4]: 100% | pest or weed control at 250 g/ha [5]: 100% | pest or weed control at 30 g/ha [6]: 10% | pest or weed control at 250 g/ha [6]: 70% | pest or weed control at 30 g/ha [7]: 90% | pest or weed control at 250 g/ha [7]: 100% | pest or weed control at 30 g/ha [8]: 0% | pest or weed control at 250 g/ha [8]: 0% | pest or weed control at 30 g/ha [9]: 100% | pest or weed control at 250 g/ha [9]: 100% | pest or weed control at 30 g/ha [10]: 90% | pest or weed control at 250 g/ha [10]: 100%

CC#Cc1cc(Cl)c(C2=C(OC(=O)c3ccc(Cl)cc3)CC(C3CCOCC3)CC2=O)c(OC)c1 (centres unmarked) [Compound P-3]
pest or weed control at 250 g/ha [1]: 80% | pest or weed control at 250 g/ha [2]: 100% | pest or weed control at 250 g/ha [3]: 100% | pest or weed control at 250 g/ha [4]: 100% | pest or weed control at 250 g/ha [5]: 100% | pest or weed control at 8 g/ha ([6]; 8 g/ha): 20% | pest or weed control at 30 g/ha [6]: 70% | pest or weed control at 250 g/ha [6]: 80% | pest or weed control at 8 g/ha ([7]; 8 g/ha): 90% | pest or weed control at 30 g/ha [7]: 100% | pest or weed control at 250 g/ha [7]: 90% | pest or weed control at 8 g/ha ([8]; 8 g/ha): 20% | pest or weed control at 30 g/ha [8]: 80% | pest or weed control at 250 g/ha [8]: 80% | pest or weed control at 8 g/ha ([9]; 8 g/ha): 100% | pest or weed control at 30 g/ha [9]: 100% | pest or weed control at 250 g/ha [9]: 100% | pest or weed control at 8 g/ha ([10]; 8 g/ha): 100% | pest or weed control at 30 g/ha [10]: 100% | pest or weed control at 250 g/ha [10]: 100%

CC#Cc1cc(Cl)c(C2C(=O)CC(CCSC)CC2=O)c(OC)c1 (centres unmarked) [Compound A-23, 2-(2-Chloro-6-methoxy-4-prop-1-ynyl-phenyl)-5-(2-methylsulfanylethyl)cyclohexane-1,3-dione]
pest or weed control at 250 g/ha [1]: 30% | pest or weed control at 250 g/ha [2]: 90% | pest or weed control at 250 g/ha [3]: 70% | pest or weed control at 250 g/ha [4]: 100% | pest or weed control at 250 g/ha [5]: 90% | pest or weed control at 30 g/ha [6]: 30% | pest or weed control at 250 g/ha [6]: 70% | pest or weed control at 30 g/ha [7]: 60% | pest or weed control at 250 g/ha [7]: 90% | pest or weed control at 30 g/ha [8]: 10% | pest or weed control at 250 g/ha [8]: 20% | pest or weed control at 30 g/ha [9]: 100% | pest or weed control at 250 g/ha [9]: 100% | pest or weed control at 30 g/ha [10]: 100% | pest or weed control at 250 g/ha [10]: 100%

CC#Cc1cc(C)c(C2=C(OS(C)(=O)=O)CC(CC3CCOCC3)CC2=O)c(C)c1 (centres unmarked) [Compound P-4]
pest or weed control at 250 g/ha [1]: 10% | pest or weed control at 250 g/ha [2]: 80% | pest or weed control at 250 g/ha [3]: 20% | pest or weed control at 250 g/ha [4]: 100% | pest or weed control at 250 g/ha [5]: 80% | pest or weed control at 250 g/ha [6]: 0% | pest or weed control at 250 g/ha [7]: 80% | pest or weed control at 250 g/ha [8]: 0% | pest or weed control at 250 g/ha [9]: 80% | pest or weed control at 250 g/ha [10]: 80%

CC#Cc1ccc(C2C(=O)C3CCC(C3)C2=O)c(Cl)c1 (centres unmarked) [Compound A-11]
pest or weed control at 250 g/ha [1]: 50% | pest or weed control at 250 g/ha [2]: 100% | pest or weed control at 250 g/ha [3]: 70% | pest or weed control at 250 g/ha [4]: 100% | pest or weed control at 250 g/ha [5]: 80% | pest or weed control at 250 g/ha [6]: 80% | pest or weed control at 250 g/ha [7]: 100% | pest or weed control at 250 g/ha [8]: 30% | pest or weed control at 250 g/ha [9]: 100% | pest or weed control at 250 g/ha [10]: 100%
